The values that follow come from patent publication US7803793B2, “Heterocyclic derived metalloprotease inhibitors” (Janssen Pharmaceutica NV, priority 2006, dated 2010).

One assay relates to all MMPs tested. The following applies: read-out: IC50's on all MMPs tested; cited from earlier work.
For the next assay, the target named is T1, MMP-9 (Homo sapiens, UniProt P14780).
T1 construct: Human MMP-9 catalytic domain (aa 107-446)
As to the kind of experiment: MMP enzymatic assay (Trupoint peptide), MMP-9. The format is biochemical.

In a further assay the target is T2, MMP-2 (Homo sapiens, UniProt P08253).
T2 construct: Human MMP-2 full length (aa 1-660)
T2 sequence (P08253 30-660): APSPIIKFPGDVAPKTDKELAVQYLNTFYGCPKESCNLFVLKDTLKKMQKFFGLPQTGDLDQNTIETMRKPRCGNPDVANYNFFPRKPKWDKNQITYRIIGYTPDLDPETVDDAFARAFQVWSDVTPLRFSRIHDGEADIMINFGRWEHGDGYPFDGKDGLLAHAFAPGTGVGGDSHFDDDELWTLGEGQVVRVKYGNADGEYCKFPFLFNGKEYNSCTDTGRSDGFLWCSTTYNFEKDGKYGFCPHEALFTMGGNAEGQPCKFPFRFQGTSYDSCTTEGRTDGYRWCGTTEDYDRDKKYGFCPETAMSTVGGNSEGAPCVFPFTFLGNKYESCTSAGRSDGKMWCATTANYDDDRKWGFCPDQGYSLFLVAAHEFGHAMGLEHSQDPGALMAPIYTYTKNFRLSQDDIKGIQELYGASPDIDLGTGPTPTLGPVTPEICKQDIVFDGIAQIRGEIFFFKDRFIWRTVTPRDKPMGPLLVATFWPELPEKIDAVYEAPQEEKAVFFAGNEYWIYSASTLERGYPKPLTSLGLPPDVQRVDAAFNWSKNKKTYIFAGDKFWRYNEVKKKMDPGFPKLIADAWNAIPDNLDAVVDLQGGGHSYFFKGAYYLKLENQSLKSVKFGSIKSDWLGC
As to the kind of experiment: MMP enzymatic assay (Trupoint peptide), MMP-2. The format is biochemical.

Read-outs that look alike come from different tables or passages of the source. Some results are limits rather than exact numbers.

T1 sequence (P14780 107-446): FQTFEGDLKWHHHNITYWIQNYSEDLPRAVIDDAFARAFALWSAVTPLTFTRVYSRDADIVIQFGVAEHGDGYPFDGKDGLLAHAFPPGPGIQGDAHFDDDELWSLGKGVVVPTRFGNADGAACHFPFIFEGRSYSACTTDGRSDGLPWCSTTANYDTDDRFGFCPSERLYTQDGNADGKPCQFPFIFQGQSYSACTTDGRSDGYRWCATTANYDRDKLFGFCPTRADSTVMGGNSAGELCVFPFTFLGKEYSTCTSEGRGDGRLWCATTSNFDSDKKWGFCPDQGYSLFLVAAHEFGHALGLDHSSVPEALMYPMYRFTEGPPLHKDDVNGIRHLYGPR

A word on the IC50: it is the midpoint of a concentration-inhibition curve. As for `CNC(=O)[C@H](Cc1c[nH]c2ccccc12)NC(=O)[C@H](Cc1ccccc1)C1OCCN(O)C1=O` (stereo partly drawn), the IC50 with all MMPs tested is 20.1 to 104 µM.
As for `O=c1c(NS(=O)(=O)c2ccc(Oc3ccc(Cl)cc3)cc2)cccn1O` [Compound 37, 4-(4-Chloro-phenoxy)-N-(1-hydroxy-2-oxo-1,2-dihydro-pyridin-3-yl)-benzene-sulfonamide], the values for the IC50 at MMP-9 and on MMP-2 (read-out: MMP-2 nM IC50) were 316 nM and 242 nM, respectively.
Consider `Cc1ccc(Oc2ccc(N(Cc3cccn(O)c3=S)S(C)(=O)=O)cc2)cc1` [Compound 47, N-(1-Hydroxy-2-thioxo-1,2-dihydro-pyridin-3-ylmethyl)-N-(4-p-tolyloxy-phenyl)-methanesulfonamide], for which the IC50 on MMP-9 is 486 nM; against MMP-2 it was greater than 1000 nM.
For `Cc1ccc(C#Cc2ccc(S(=O)(=O)N(CCN3CCOCC3)C3CC=CCN(O)C3=O)s2)cc1` (stereo not drawn) [Compound 91], the IC50 at MMP-9 turned out to be 0.6 nM; on MMP-2, 2.2 nM.
For `Cc1ccc(Oc2ccc(N(C(C)c3cccn(O)c3=O)S(C)(=O)=O)cc2)cc1` (stereo not drawn) [Compound 50, N-[1-(1-Hydroxy-2-oxo-1,2-dihydro-pyridin-3-yl)-ethyl]-N-(4-p-tolyloxy-phenyl)-methanesulfonamide] the same measures were 223 nM and 2550 nM.
For `Cc1ccc(-c2ccc(S(=O)(=O)C3CCCCN(O)C3=O)cc2)cc1` (stereo not drawn) [Compound 86, 1-Hydroxy-3-(4′-methyl-biphenyl-4-sulfonyl)-azepan-2-one], in that order: greater than 1000 nM and greater than 1000 nM.
For `CS(=O)(=O)N(Cc1cccn(O)c1=O)c1ccc(Oc2ccc(Cl)cc2)cc1` [Compound 44, N-[4-(4-Chloro-phenoxy)-phenyl]-N-(1-hydroxy-2-oxo-1,2-dihydro-pyridin-3-ylmethyl)-methanesulfonamide], in that order: 126 nM and 406 nM.
With `O=C(CN(c1cccn(O)c1=O)S(=O)(=O)c1ccc(Oc2ccc(Cl)cc2)cc1)N1CCOCC1` [Compound 35, 4-(4-Chloro-phenoxy)-N-(1-hydroxy-2-oxo-1,2-dihydro-pyridin-3-yl)-N-(2-morpholin-4-yl-2-oxo-ethyl)-benzenesulfonamide], the IC50 at MMP-9 was found to be 4.84 nM; on MMP-2 (read-out: MMP-2 nM IC50), 4.93 nM.
For the compound `Cc1ccc(Oc2ccc(N(Cc3cc(Br)cn(O)c3=O)S(C)(=O)=O)cc2)cc1` [Compound 49, N-(5-Bromo-1-hydroxy-2-oxo-1,2-dihydro-pyridin-3-ylmethyl)-N-(4-p-tolyloxy-phenyl)-methanesulfonamide], the IC50 at MMP-9 was found to be 116 nM; on MMP-2, 547 nM.
For `O=C1[C@H](NS(=O)(=O)c2ccc(Oc3ccccn3)cc2)CC=CCN1O` [Compound 8, N-(1-Hydroxy-2-oxo-2,3,4,7-tetrahydro-1H-azepin-3-(R)-yl)-4-(pyridin-2-yloxy)-benzenesulfonamide], in that order: 22.9 nM and 15.1 nM.
For `O=C1C(S(=O)(=O)c2ccc(-c3ccc(Cl)cc3)cc2)CCCCN1O` (stereo not drawn) [Compound 82, 3-(4′-Chloro-biphenyl-4-sulfonyl)-1-hydroxy-azepan-2-one] the same measures were greater than 1000 nM and greater than 1000 nM.
For `CC1=CC[C@@H](NS(=O)(=O)c2ccc(Oc3ccc(Cl)cc3)cc2)C(=O)N(O)C1` [Compound 20, (R)-4-(4-Chloro-phenoxy)-N-(1-hydroxy-6-methyl-2-oxo-2,3,4,7-tetrahydro-1H-azepin-3-yl)-benzenesulfonamide] the same measures were 0.68 nM and 0.72 nM.
Consider `O=c1c(N(Cc2ccccc2)S(=O)(=O)c2ccc(Oc3ccccc3)cc2)cccn1O` [Compound 22, N-Benzyl-N-(1-hydroxy-2-oxo-1,2-dihydro-pyridin-3-yl)-4-phenoxy-benzene-sulfonamide], for which the values for the IC50 on MMP-9 and at MMP-2 (read-out: MMP-2 nM IC50) were 33.4 nM and 22.4 nM, respectively.
On to `O=C1[C@H](NS(=O)(=O)c2ccc(Oc3ccc(C(F)(F)F)cc3)cc2)CCCN1O` [Compound 58, (R)—N-(1-Hydroxy-2-oxo-piperidin-3-yl)-4-(4-trifluoromethyl-phenoxy)-benzenesulfonamide], for which the IC50 is 743 nM against MMP-9 and 46.7 nM on MMP-2.
For `O=C1C(S(=O)(=O)c2ccc(-c3nc4cc(C(F)(F)F)ccc4[nH]3)cc2)CCCCN1O` (stereo not drawn) [Compound 74, 1-Hydroxy-3-[4-(5-trifluoromethyl-1H-benzoimidazol-2-yl)-benzenesulfonyl]-azepan-2-one] the same measures were greater than 1000 nM and greater than 1000 nM.
Turning to `COc1ccc(Oc2ccc(S(=O)(=O)C3CCCCN(O)C3=O)cc2)cc1` (stereo not drawn) [Compound 70, 1-Hydroxy-3-[4-(4-methoxy-phenoxy)-benzenesulfonyl]-azepan-2-one], the values for the IC50 against MMP-9 and at MMP-2 (read-out: MMP-2 nM IC50) were 31 nM and 95.9 nM, respectively.
For `CN1CCN(CCN([C@@H]2CC=CCN(O)C2=O)S(=O)(=O)c2ccc(Oc3ccc(Cl)cc3)cc2)CC1` [Compound 14, 4-(4-Chloro-phenoxy)-N-(1-hydroxy-2-oxo-2,3,4,7-tetrahydro-1H-azepin-3-(R)-yl)-N-[2-(4-methyl-piperazin-1-yl)-ethyl]-benzenesulfonamide], the IC50 was found to be 0.2 nM at MMP-9 and 0.49 nM against MMP-2.
